In PMC6804193, “Extending the Inhibition Profiles of Coumarin-Based Compounds Against Human Carbonic Anhydrases: Synthesis, Biological, and In Silico Evaluation” (Molecules, 2019):
Like-named read-outs stand apart in the source and are kept apart here.

Assays:
Test in all cases: stopped-flow CO2 hydrase assay
Assay type in all cases: biochemical
[1] = biological target: T1, hCA II (Homo sapiens, UniProt P00918)
T1 construct: gene CA2; recombinant, obtained in-house; cytosolic isoform
Description: stopped-flow CO2 hydrase assay on hCA II

[2] = biological target: T2, hCA I (Homo sapiens, UniProt P00915)
T2 construct: gene CA1; recombinant, obtained in-house; cytosolic isoform
Description: stopped-flow CO2 hydrase assay on hCA I

[3] = biological target: T3, hCA IX (Homo sapiens, UniProt Q16790)
T3 construct: gene CA9; recombinant, obtained in-house
Description: stopped-flow CO2 hydrase assay on hCA IX

[4] = biological target: T4, hCA XII (Homo sapiens, UniProt O43570); conditions: read-out: KI^* (nM) / hCA II
T4 construct: gene CA12; recombinant, obtained in-house

[5] = biological target: T4, hCA XII; conditions: read-out: KI^* (nM) / hCAXII
Description: stopped-flow CO2 hydrase assay on hCA XII

[6] = CO2 […], […] Hepes pH […] Na2SO4, […] h preincubation at room temperature (prodrug inhibitors)

T2 sequence (P00915 2-261): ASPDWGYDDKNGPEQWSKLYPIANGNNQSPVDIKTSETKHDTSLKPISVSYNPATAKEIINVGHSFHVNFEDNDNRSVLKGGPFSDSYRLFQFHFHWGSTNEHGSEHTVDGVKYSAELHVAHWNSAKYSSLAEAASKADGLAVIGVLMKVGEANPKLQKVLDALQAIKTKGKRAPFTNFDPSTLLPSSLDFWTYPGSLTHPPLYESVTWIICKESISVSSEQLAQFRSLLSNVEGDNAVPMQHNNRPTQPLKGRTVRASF
T4 sequence (O43570 25-354): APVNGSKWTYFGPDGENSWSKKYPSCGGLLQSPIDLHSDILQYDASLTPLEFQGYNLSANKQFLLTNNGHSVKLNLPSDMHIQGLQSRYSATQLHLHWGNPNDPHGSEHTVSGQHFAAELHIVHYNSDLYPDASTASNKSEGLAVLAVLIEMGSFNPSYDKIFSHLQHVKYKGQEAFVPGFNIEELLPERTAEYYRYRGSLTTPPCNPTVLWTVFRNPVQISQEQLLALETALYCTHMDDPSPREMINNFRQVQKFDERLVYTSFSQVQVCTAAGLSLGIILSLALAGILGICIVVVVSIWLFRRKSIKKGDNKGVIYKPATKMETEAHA

Ki [1] | Ki [2] | Ki [3] | Ki [4] | Ki [1, 6] | Ki [2, 6] | Ki [5, 6] | Ki [3, 6] | Ki [5] | Compound
> 10000 nM | > 10 µM | 172 nM | > 10000 nM |  |  |  |  |  | COc1ccc(C2CC(=O)Oc3ccc(C(C)=O)c(O)c32)cc1OCCc1ccc2c(c1)CCO2 (racemic) [compound 5, 6-Acetyl-4-(3-(2-(2,3-dihydrobenzofuran-5-yl)ethoxy)-4-methoxyphenyl)-5-hydroxychroman-2-one]
 |  |  |  | > 10000 nM | > 10 µM | 558 nM | 49.3 nM |  | CC(=NO)c1c(OCc2ccc(Cl)cc2)ccc2c(C)cc(=O)oc12 [compound 1, 7-((4-Chlorobenzyl)oxy)-8-(1-(hydroxyimino)ethyl)-4-methyl-2H-chromen-2-one]
> 10000 nM | > 10 µM | 171 nM | > 10000 nM |  |  |  |  |  | CCCc1cc2c(=O)c(-c3ccc4c(c3)OCCO4)coc2cc1OCc1cc(=O)oc2cc(C)cc(C)c12 [compound 9, coumarin 9]
> 10000 nM | > 10 µM | 175 nM | > 10000 nM |  |  |  |  |  | COc1ccc2occ(C3CC(=O)Oc4ccc(C(C)=O)c(O)c43)c(=O)c2c1 (racemic) [compound 8, 3-(6-Acetyl-5-hydroxy-2-oxochroman-4-yl)-6-methoxy-4H-chromen-4-one]
> 10000 nM | > 10 µM | 9.4 nM |  |  |  |  |  | 591 nM | O=C(Nc1ccc2oc(=O)ccc2c1)[C@@H]1CSC2c3ccccc3C(=O)N21 (stereo partly drawn) [compound 11, coumarin 11]
> 10000 nM | > 10 µM | 139 nM | > 10000 nM |  |  |  |  |  | CC(=O)c1ccc2c(c1O)C(c1ccccc1OCc1ccccn1)CC(=O)O2 (racemic) [compound 7, 6-Acetyl-5-hydroxy-4-(2-(pyridin-2-ylmethoxy)phenyl)chroman-2-one]
> 10000 nM | > 10 µM | 25.7 nM |  |  |  |  |  | 604 nM | Cc1cc(=O)oc2c(C)c(O)c(C(=O)/C=C/N(C)C)cc12 [compound 10, coumarin 10]
> 10000 nM | > 10 µM | 85.6 nM | > 10000 nM |  |  |  |  |  | Cc1c(O)c(CN(C)C)cc2c(-c3cc4ccccc4oc3=O)cc(=O)oc12 [compound 2, 6’-((Dimethylamino)methyl)-7’-hydroxy-8’-methyl-2H,2’H-[3,4’-bichromene]-2,2’-dione]
> 10000 nM | > 10 µM | 241 nM |  |  |  |  |  | 432 nM | O=C(NN1C(=O)/C(=C/C2=Cc3ccccc3OC2)SC1=S)c1cccnc1 [compound 12, 2H-chromene 12]
> 10000 nM | > 10 µM | 133 nM | > 10000 nM |  |  |  |  |  | O=c1cc(-c2cc3ccc(O)cc3oc2=O)c2ccc(O)c(O)c2o1 [compound 3, 7,7’,8’-Trihydroxy-2H,2’H-[3,4’-bichromene]-2,2’-dione]
> 10000 nM | > 10 µM | 189 nM | > 10000 nM |  |  |  |  |  | COc1cc(C2CC(=O)Oc3ccc(C(C)=O)c(O)c32)ccc1O (racemic) [compound 6, 6-Acetyl-5-hydroxy-4-(4-hydroxy-3-methoxyphenyl)chroman-2-one]
> 10000 nM | > 10 µM | 243 nM |  |  |  |  |  | 467 nM | CCOC(=O)CC(C1=Cc2ccccc2OC1)c1oc(CO)cc(=O)c1O (stereo not drawn) [compound 4, Ethyl 3-(2H-chromen-3-yl)-3-(3-hydroxy-6-(hydroxymethyl)-4-oxo-4H-pyran-2-yl) propanoate]
